Measured values from patent publication US9107865B2, “Methods for producing oocysts” (Zoetis Services LLC, priority 2001, dated 2015).
Like-named read-outs stand apart in the source and are kept apart here.

Key:
[1] = tested on: Chicken Infectious Anemia Virus; experiment: PCR virus detection after sanitization of oocysts; settings: sanitized E. maxima oocysts
Description: (§1) Two experimental batches of E. maxima oocysts were prepared (Run A and Run B). Each batch was purified using sieving and flotation procedures. Each batch was then split and two methods of sanitization were tested (sodium hypochlorite and hydrogen peroxide with citric acid and propionic acid). Samples from each test were subjected to several purity tests including 9CFR tests and two PCR methods for virus detection.

[2] = tested on: Reticuloendothelial Virus; experiment: PCR virus detection after sanitization of oocysts; settings: sanitized E. maxima oocysts
Description: as §1

mycoplasma = experiment: 9CFR 113.28 purity test after sanitization of oocysts; settings: sanitized E. maxima oocysts
Description: (§2) An experiment was performed to investigate the utility of the sporulation medium described in Example 3 as a sanitization reagent. E. maxima oocysts were produced in broilers and purified using a density flotation technique. Oocysts were sporulated for 72 h using 10% citric acid, 0.25% propionic acid, 0.75% hydrogen peroxide, and 1 mL/L Antifoam A. After sporulation, the oocysts were centrifuged and resuspended in sterile-filtered sporulation medium (10% citric acid, 0.25% propionic acid, 0.75% hydrogen peroxide, 1 mL/L Antifoam A) and incubated overnight at room temperature with stirring. After sanitization, buffer exchange was accomplished via diafiltration using 200 mM potassium phosphate, pH 7, followed by PBS without preservatives. The bulk sample was stored in glass bottles approximately one-third full at 4° C. Subsamples of the final product were sent to a commercial testing laboratory for purity tests according to U.S. Department of Agriculture (USDA) guidelines.
as §1

[3] = tested on: extraneous viable bacteria and fungi; experiment: 9CFR 113.27 purity test after sanitization of oocysts; settings: sanitized E. maxima oocysts
Description: as §2, §1

hemagglutinating virus = experiment: 9CFR 113.34 purity test after sanitization of oocysts; settings: sanitized E. maxima oocysts
Description: as §2, §1

salmonella = experiment: 9CFR 113.30 purity test after sanitization of oocysts; settings: sanitized E. maxima oocysts
Description: as §2, §1

[4] = tested on: Extraneous agents in master seed; experiment: 9CFR 113.55 purity test after sanitization of oocysts; settings: sanitized E. maxima oocysts
Description: as §1

avian lymphoid leukosis = settings: sanitized E. maxima oocysts
Description: E. maxima oocysts were produced in broilers and purified using a density flotation technique. […] After sanitization, buffer exchange was accomplished via diafiltration using 200 mM potassium phosphate, pH 7, followed by PBS without preservatives. The bulk sample was stored in glass bottles approximately one-third full at 4° C. Subsamples of the final product were sent to a commercial testing laboratory for purity tests according to U.S. Department of Agriculture (USDA) guidelines.

Scopulariopsis brumptii = experiment: Fungistatic or fungicidal properties of reagents (TSB flasks, then MEA plates); type: cell-based; settings: for Growth on MEA plates (Day 14): 1 mL of flask plated on day 28 onto MEA plate, 14 days; for Growth on MEA plates (Day 14) / Growth in TSB Flasks (Day 28): room temperature; for Growth in TSB Flasks (Day 28): TSB flasks inoculated with fungal stock, 28 days; for fungistatic / fungicidal assessment: flask and plate tests taken together; as to Growth in TSB Flasks (Day 28): key: −: no growth was observed; +: growth was observed; as to Growth on MEA plates (Day 14): key: −: no growth was observed; +: growth was observed
Description: An experiment was conducted to assess the fungistatic or fungicidal properties of the reagents used in the collection and sporulation medium described in Example 3. Initial sterility tests were performed using trypticase soy broth (TSB). A fungal stock was created by suspending fungal scrapings from a Scopulariopsis brumptii stock culture into 25 mL PBS and filtering this material through a coarse Swinney filter (˜100 μm). Two hundred […] of this fungal stock was inoculated into three TSB flasks for treatments (Trt) 2-11.
Treatments evaluated various of the components of the collection/sporulation/sanitization medium described in Example 3, either alone or in combination. Sodium propionate was also tested in addition to propionic acid. Treatments were evaluated at room temperature for 28 days; then, on day 28 of incubation, one mL of each replicate flask for all treatments was plated onto a malt extract agar (MEA) plate with chloramphenicol (50 μg/mL) and penicillin-G (100 U/mL) and incubated at room temperature for 14 days.

[Na+].[O-]Cl [Hypochlorite, sodium hypochlorite]
Negative: Chicken Infectious Anemia Virus by PCR ([1]; Example 6, Run A) | Chicken Infectious Anemia Virus by PCR ([1]; Example 6, Run B) | Reticuloendothelial Virus by PCR ([2]; Example 6, Run A) | Reticuloendothelial Virus by PCR ([2]; Example 6, Run B) | 9CFR 113.28 Detection of mycoplasma (mycoplasma; Example 6, Run A) | 9CFR 113.28 Detection of mycoplasma (mycoplasma; Example 6, Run B) | 9CFR 113.27 Detection of extraneous viable bacteria and fungi in live vaccine ([3]; Example 6, Run A) | 9CFR 113.27 Detection of extraneous viable bacteria and fungi in live vaccine ([3]; Example 6, Run B) | 9CFR 113.34 Detection of hemagglutinating virus (hemagglutinating virus; Example 6, Run A) | 9CFR 113.34 Detection of hemagglutinating virus (hemagglutinating virus; Example 6, Run B) | 9CFR 113.30 Detection of salmonella (salmonella; Example 6, Run A) | 9CFR 113.30 Detection of salmonella (salmonella; Example 6, Run B) | 9CFR 113.55 Extraneous agents in master seed ([4]; Example 6, Run A) | 9CFR 113.55 Extraneous agents in master seed ([4]; Example 6, Run B) | 9CFR 113.31 Detection of avian lymphoid leucosis (avian lymphoid leukosis; Example 6, Run A) | 9CFR 113.31 Detection of avian lymphoid leucosis (avian lymphoid leukosis; Example 6, Run B)

OO [Trt 3, hydrogen peroxide]
−: Growth on MEA plates (Day 14) (Scopulariopsis brumptii) | Growth in TSB Flasks (Day 28) (Scopulariopsis brumptii)

CCC(=O)O [Trt 4, propionic acid]
fungistatic: fungistatic / fungicidal assessment (Scopulariopsis brumptii)
−: Growth in TSB Flasks (Day 28) (Scopulariopsis brumptii)
+: Growth on MEA plates (Day 14) (Scopulariopsis brumptii)

O=C(O)CC(O)(CC(=O)O)C(=O)O [Trt 5, citric acid]
−: Growth on MEA plates (Day 14) (Scopulariopsis brumptii) | Growth in TSB Flasks (Day 28) (Scopulariopsis brumptii)

CCC(=O)[O-].[Na+] [Trt 10, sodium propionate]
+: Growth on MEA plates (Day 14) (Scopulariopsis brumptii) | Growth in TSB Flasks (Day 28) (Scopulariopsis brumptii)

CCC(=O)[O-].[Na+] [sodium propionate]
did not inhibit fungal growth: fungistatic / fungicidal assessment (Scopulariopsis brumptii)
